Test results from US20040220089A1, “Ophthalmic preparation containing glycoprotein” (priority 2001, published 2004).

System: Madin-Darby Canine Kidney (MDCK) cells
Experiment: in vitro transepithelial permeability assay (fluorescein, Tchao) for eye irritation potential
Details: MDCK monolayer, 30 minutes at 37° C., Na-fluorescein permeability; SDS=100% response; less than 20% considered non-irritating
Source text: The Tchao technique is described as a method of determining potential eye irritation of a substance by correlating damage to a mono-layer of Madin-Darby Canine Kidney (MDCK) cells with damage to corneal epithelial cells. The amount of fluorescein passing through the cell mono-layer is a function of permeability of the cell mono-layer. Higher cell mono-layer permeability indicates greater damage to the cell junctions from application of a test solution thereto, whereas lower cell mono-layer permeability indicates less damage to the cell junctions from application of the test solution. […]
Test: Each insert is rinsed with Hanks Balanced Salt Solution (HBSS) 3×1 ml using a 10 ml syringe without needle. […] After incubation at room temperature for 30 minutes, the inserts are sequentially removed from the wells, and the amount of Na-fluorescein in each of the wells is measured in a CytoFluor 2300, using 540 nm excitation and 590 nm emission. […] It has been determined that the assay can measure the effect of 50 μg/ml SDS, and the effect on the permeability of the monolayer is linearly proportional to the concentrations of SDS from 50-250 μg/ml. Fluorescence units (arbitrary) of each test solution is plotted against test solutions.
Interpretation of results: The results are expressed as % of SDS response, and comparisons with the HBSS response. […]

CCCCCCCCCCCCOS(=O)(=O)[O-].[Na+] [SDS, sodium dodecyl sulfate]
RESPONSE (percentage of SDS response): 100%
